Each molecule was assayed on NBD1 (assay: Aggregation analysis of NBD1 thermal stability by differential static light scattering (DSLS)). Details: compound at 100 μM; ΔTagg versus DMSO control.
Format: binding, Human
Procedure: Purified recombinant NBD1 was produced using previously described methods (A. Schmidt, J. L. Mendoza, P. J. Thomas (2011) Biochemical and Biophysical Approaches to Probe CFTR Structure (365-376) M. D. Amaral, K. Kunzelmann (eds.), Cysic Fibrosis, Methods in Molecular Biology 741, Springer Science+Business Media). The effect of test compounds on thermal stability of NBD1 was evaluated by differential static light scattering (DSLS) using the Harbinger Stargazer-384 instrument (Epiphyte Three, Toronto, Canada). Test compounds were dissolved and diluted to desired concentrations in 100% DMSO. The compounds or DMSO controls (100 nL) were stamped into wells of a […] low volume optical plate (Corning Inc., Corning, NY) using the Echo 555 acoustic liquid handler (Labcyte Inc., San Jose, CA).
NBD1 protein was diluted to 0.2 mg/ml in S200 buffer (50 mM Tris-HCl, 150 mM NaCl, 5 mM MgCl2, 2 mM ATP, 2 mM DTT, pH7.6) containing 1% glycerol. 10 uL of protein solution was aliquoted into the 384-well plate harboring the test compounds and 10 uL mineral oil was overlayed onto the protein solution, using the epMotion robotic liquid handler (Eppendorf North America, Hauppauge, NY). After placing into the Stargazer instrument, the plate was heated at 1° C. per minute to 70° C. Images were captured from 25° C. to 70° C. every 0.5° C. At the end of the experiment run, instrument software integrated image files and analyzed data automatically. A […] regression curve was generated for each well, representing the increase in light scattering over time. A temperature of aggregation (Tagg) was calculated based on the inflection point of the curve. To better compare data across experiments the average Tagg for DMSO control wells was calculated and subtracted from values for wells containing compounds to obtain a “ΔTagg” value. These ΔTagg values reflect stabilizing efficacy of the compounds.

SMILES	DSLS NBD1/3D Human Stability delta-T (° C.) @ 100 (μM)
COCCS(=O)(=O)c1c(Oc2cccc(-c3ncc(C(C)(O)c4ccccc4)[nH]3)c2)c(F)cc2[nH]ccc12 (centres unmarked) [Example 61, 1-(2-(3-((6-Fluoro-4-((2-methoxyethyl)sulfonyl)-1H-indol-5-yl)oxy)phenyl)-1H-imidazol-5-yl)-1-phenylethan-1-ol]	B (4-8° C.)
COCC[S+]([O-])c1c(Oc2cccc(-c3ncc(C(C)(O)c4ccccc4)[nH]3)c2)c(F)cc2[nH]ccc12 (centres unmarked) [Example 62, 1-(2-(3-((6-Fluoro-4-((2-methoxyethyl)sulfinyl)-1H-indol-5-yl)oxy)phenyl)-1H-imidazol-5-yl)-1-phenylethan-1-ol]	B (4-8° C.)
CNCCS(=O)(=O)c1c(Oc2cccc(-c3ncc(C(C)(O)c4ccccc4)[nH]3)c2)c(F)cc2[nH]ccc12 (centres unmarked) [Example 64, 1-(2-(3-((6-Fluoro-4-((2-(methylamino)ethyl)sulfonyl)-1H-indol-5-yl)oxy)phenyl)-1H-imidazol-5-yl)-1-phenylethan-1-ol]	A (T ≥8° C.)
CC(=O)c1c(Oc2cccc(-c3nc(C(C)(O)c4ccccc4)c[nH]3)c2)c(F)cc2[nH]ccc12 (centres unmarked) [Example 65, 1-(6-Fluoro-5-(3-(4-(1-hydroxy-1-phenylethyl)-1H-imidazol-2-yl)phenoxy)-1H-indol-4-yl)ethan-1-one]	A (T ≥8° C.)
CC(O)c1c(Oc2cccc(-c3nc(C(C)(O)c4ccccc4)c[nH]3)c2)c(F)cc2[nH]ccc12 (centres unmarked) [Example 66, 1-(2-(3-((6-Fluoro-4-(1-hydroxyethyl)-1H-indol-5-yl)oxy)phenyl)-1H-imidazol-4-yl)-1-phenylethan-1-ol]	A (T ≥8° C.)
O=C(O)c1c(Oc2cccc(-c3nc(C(O)(c4ccccc4)C(F)(F)F)n[nH]3)c2)ccc2[nH]ccc12 (centres unmarked) [Example 67, 5-(3-(3-(2,2,2-Trifluoro-1-hydroxy-1-phenylethyl)-1H-1,2,4-triazol-5-yl)phenoxy)-1H-indole-4-carboxylic acid]	C (≤4° C.)
CC(O)(c1ccccc1)c1cnc(-c2cccc(Oc3cc(F)c4[nH]ccc4c3)c2)[nH]1 (centres unmarked) [Example 69, 1-(2-(3-((7-Fluoro-1H-indol-5-yl)oxy)phenyl)-1H-imidazol-5-yl)-1-phenylethan-1-ol]	B (4-8° C.)
CN1C(=O)SC(Cc2c(Oc3ccc(F)c(-c4nc(C(C)(O)c5ccccc5)c[nH]4)c3)c(F)cc3[nH]ccc23)C1=O (centres unmarked) [Example 70, 5-((6-fluoro-5-(4-fluoro-3-(4-(1-hydroxy-1-phenylethyl)-1H-imidazol-2-yl)phenoxy)-1H-indol-4-yl)methyl)-3-methylthiazolidine-2,4-dione]	B (4-8° C.)
CC(O)(c1ccccc1)c1cnc(-c2cc(Oc3c(F)cc4[nH]ccc4c3CCC(=O)O)ccc2F)[nH]1 (centres unmarked) [Example 71, 3-(6-Fluoro-5-(4-fluoro-3-(5-(1-hydroxy-1-phenylethyl)-1H-imidazol-2-yl)phenoxy)-1H-indol-4-yl)propanoic acid]	A (T ≥8° C.)
CS(=O)(=O)c1c(Oc2ccc(F)c(-c3nc(C(OCCO)c4ccccc4)c[nH]3)c2)c(F)cc2[nH]ccc12 (centres unmarked) [Example 72, 2-((2-(2-Fluoro-5-((6-fluoro-4-(methylsulfonyl)-1H-indol-5-yl)oxy)phenyl)-1H-imidazol-4-yl)(phenyl)methoxy)ethan-1-ol]	A (T ≥8° C.)
CS(=O)(=O)c1c(Oc2ccc(F)c(-c3nc(C(OCC(=O)O)c4ccccc4)c[nH]3)c2)c(F)cc2[nH]ccc12 (centres unmarked) [Example 73, 2-((2-(2-Fluoro-5-((6-fluoro-4-(methylsulfonyl)-1H-indol-5-yl)oxy)phenyl)-1H-imidazol-4-yl)(phenyl)methoxy)acetic acid]	A (T ≥8° C.)
Cc1c(Oc2ccc(F)c(-c3ncc(C(C)(O)c4ccccc4)[nH]3)c2)c(F)cc2[nH]cc(CC(=O)O)c12 (centres unmarked) [Example 74, 2-(6-Fluoro-5-(4-fluoro-3-(5-(1-hydroxy-1-phenylethyl)-1H-imidazol-2-yl)phenoxy)-4-methyl-1H-indol-3-yl)acetic acid]	B (4-8° C.)
CC(C)(c1ccccc1)c1cnc(-c2cc(Oc3c(F)cc4[nH]ccc4c3CCS(N)(=O)=O)ccc2F)[nH]1 [Example 75, 2-(6-Fluoro-5-(4-fluoro-3-(5-(2-phenylpropan-2-yl)-1H-imidazol-2-yl)phenoxy)-1H-indol-4-yl)ethane-1-sulfonamide]	B (4-8° C.)
CC(C(=O)O)(c1ccccc1)c1c[nH]c(-c2cc(Oc3c(F)cc4[nH]ccc4c3F)ccc2F)n1 (centres unmarked) [Example 76, 2-(2-(5-((4,6-Difluoro-1H-indol-5-yl)oxy)-2-fluorophenyl)-1H-imidazol-4-yl)-2-phenylpropanoic acid]	B (4-8° C.)
Cc1c(Oc2ccc(F)c(-c3nc(C(C)(CO)c4ccccc4)c[nH]3)c2)c(F)cc2[nH]ccc12 (centres unmarked) [Example 77, 2-(2-(2-Fluoro-5-((6-fluoro-4-methyl-1H-indol-5-yl)oxy)phenyl)-1H-imidazol-4-yl)-2-phenylpropan-1-ol]	B (4-8° C.)
CC(C)(O)c1nc(-c2cc(Oc3c(F)cc4[nH]ccc4c3S(C)(=O)=O)ccc2F)[nH]c1Cc1ccccc1 [Example 79, 2-(5-Benzyl-2-(2-fluoro-5-((6-fluoro-4-(methylsulfonyl)-1H-indol-5-yl)oxy)phenyl)-1H-imidazol-4-yl)propan-2-ol]	B (4-8° C.)
NCc1nc(-c2cc(Oc3c(F)cc4[nH]ccc4c3F)ccc2F)[nH]c1Cc1ccccc1 [Example 80, (5-Benzyl-2-(5-((4,6-difluoro-1H-indol-5-yl)oxy)-2-fluorophenyl)-1H-imidazol-4-yl)methanamine]	B (4-8° C.)
O=C(O)c1c(Oc2cccc(-c3nc(C(O)c4ccccc4)c[nH]3)c2)ccc2[nH]ccc12 (centres unmarked) [Example 81, 5-(3-(4-(Hydroxy(phenyl)methyl)-1H-imidazol-2-yl)phenoxy)-1H-indole-4-carboxylic acid]	B (4-8° C.)
COCCNC(=O)c1c(Oc2cccc(-c3nc(C(O)c4ccccc4)c[nH]3)c2)ccc2[nH]ccc12 (centres unmarked) [Example 82, 5-(3-(4-(Hydroxy(phenyl)methyl)-1H-imidazol-2-yl)phenoxy)-N-(2-methoxyethyl)-1H-indole-4-carboxamide]	B (4-8° C.)
O=C(NCC(O)C(F)(F)F)c1c(Oc2cccc(-c3nc(C(O)c4ccccc4)c[nH]3)c2)ccc2[nH]ccc12 (centres unmarked) [Example 83, 5-(3-(4-(Hydroxy(phenyl)methyl)-1H-imidazol-2-yl)phenoxy)-N-(3,3,3-trifluoro-2 hydroxypropyl)-1H-indole-4-carboxamide]	A (T ≥8° C.)

Reference: patent publication US20240239784A1, “INDOLE COMPOUNDS AND METHODS OF USE” (GENZYME CORPORATION, priority 2021, published 2024)
